Reference: patent US12391686B2, “Compounds and uses thereof” (Foghorn Therapeutics Inc., priority 2019, dated 2025)
Read-outs that look alike come from different tables or passages of the source.

Target: T1, Nanoluciferase-BRD9 fusion protein (3×FLAG-NLuc-BRD9) in SYO-1 cells (Homo sapiens, UniProt Q9H8M2)
T1 construct: expressed in transfected cells; host or cells: SYO-1
T1 sequence (Q9H8M2 1-597): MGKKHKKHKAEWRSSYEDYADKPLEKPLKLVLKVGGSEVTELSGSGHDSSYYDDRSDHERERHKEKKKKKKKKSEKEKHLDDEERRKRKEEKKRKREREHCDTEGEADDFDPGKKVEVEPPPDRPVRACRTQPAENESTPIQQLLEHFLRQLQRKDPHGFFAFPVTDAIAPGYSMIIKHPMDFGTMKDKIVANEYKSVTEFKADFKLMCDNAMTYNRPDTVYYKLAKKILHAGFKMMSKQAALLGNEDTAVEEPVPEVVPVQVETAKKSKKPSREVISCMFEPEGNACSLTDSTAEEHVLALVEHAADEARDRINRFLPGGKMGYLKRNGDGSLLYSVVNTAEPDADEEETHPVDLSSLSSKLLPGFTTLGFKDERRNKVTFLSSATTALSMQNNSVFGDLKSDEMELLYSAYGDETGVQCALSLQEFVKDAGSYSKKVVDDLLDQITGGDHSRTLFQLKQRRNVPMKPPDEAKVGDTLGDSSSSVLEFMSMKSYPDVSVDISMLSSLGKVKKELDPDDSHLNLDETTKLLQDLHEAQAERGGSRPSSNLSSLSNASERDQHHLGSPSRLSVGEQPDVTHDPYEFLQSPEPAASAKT
Assay: SYO1 BRD9 NanoLuc Degradation Assay
Type: cell-based
Details: SYO-1 cells expressing 3×FLAG-NLuc-BRD9, 6 hours incubation, 1 μM top dose, read-out: SYO1 BRD9-NanoLuc degradation IC50
Experimental: Procedure: A stable SYO-1 cell line expressing 3×FLAG-NLuc-BRD9 was generated. On day 0 cells were seeded in 30 μL media into each well of 384-well cell culture plates. The seeding density was 8000 cells/well. On day 1, cells were treated with 30 nL DMSO or 30 nL of 3-fold serially DMSO-diluted compounds (10 points in duplicates with 1 μM as final top dose). Subsequently plates were incubated for 6 hours in a standard tissue culture incubator and equilibrated at room temperature for 15 minutes. Nanoluciferase activity was measured by adding 15 μL of freshly prepared Nano-Glo Luciferase Assay Reagent (Promega N1130), shaking the plates for 10 minutes and reading the bioluminescence using an EnVision reader.
Results: The Inhibition % was calculated using the following formula: % Inhibition=100×(LumHC−Lumsample)/(LumHC−LumLC). DMSO treated cells are employed as High Control (HC) and 1 μM of a known BRD9 degrader standard treated cells are employed as Low Control (LC).

Compound	DC50 (Table 6C) [nM]	DC50 (Table 6B) [nM]
COc1cc(-c2cn(C)c(=O)c3cnc(N(C)C)cc23)cc(OC)c1CN1CC(N(C)c2ccc3c(c2)C(=O)N(C2CCC(=O)NC2=O)C3=O)C1 (centres unmarked) [Compound D268]	< 10	–
COc1cc(-c2cn(C)c(=O)c3cnc(N(C)C)cc23)cc(OC)c1CN1CCC2(CC1)CN(c1ccc3c(c1)C(=O)N(C1CCC(=O)NC1=O)C3=O)C2 (centres unmarked) [Compound D68]	–	< 10
COc1cc(-c2cn(C)c(=O)c3cnc(N(C)C)cc23)cc(OC)c1C1CN(c2ccc3c(c2)C(=O)N(C2CCC(=O)NC2=O)C3)C1 (centres unmarked) [Compound D257]	< 10	–
[2H]C([2H])([2H])n1cc(-c2cc(OC)c(CN3CCN(CCC4CCN(c5ccc6c(c5)C(=O)N(C5CCC(=O)NC5=O)C6)CC4)CC3)c(OC)c2)c2cc(OC)ncc2c1=O (centres unmarked) [Compound D231]	< 10	–
COc1cc(-c2cn(C)c(=O)c3cnc(N4CCOCC4)cc23)cc(OC)c1CN1CC(Oc2ccc3c(c2)CN(C2CCC(=O)NC2=O)C3=O)C1 (centres unmarked) [Compound D314]	< 10	–
COc1cc(-c2cn(C)c(=O)c3cnc(N(C)C)cc23)cc(OC)c1CN1CCN(CCC2CCN(c3ccc4c(c3)C(=O)N(C3CCC(=O)NC3=O)C4)CC2)CC1 (centres unmarked) [Compound D120]	–	< 10
COc1cc(-c2cn(C)c(=O)c3cnc(N4CC[C@H]4C)cc23)cc(OC)c1CN1CCC(CN2CCC3(CC2)CN(c2ccc4c(c2)C(=O)N(C2CCC(=O)NC2=O)C4)C3)CC1 (some centres unmarked) [Compound D208]	< 10	–
CCN(C)c1cc2c(-c3cc(OC)c(CN4CCN(CCC5CCN(c6ccc7c(c6)C(=O)N(C6CCC(=O)NC6=O)C7=O)CC5)CC4)c(OC)c3)cn(C)c(=O)c2cn1 (centres unmarked) [Compound D124]	–	< 10
COc1cc(-c2cn(C)c(=O)c3cnc(N(C)C)cc23)cc(OC)c1CN1CC2(CCC(N3CCN(C4CCC(=O)NC4=O)C(=O)C3)CC2)C1 (centres unmarked) [Compound D252]	10 to 100	–
COc1cc2c(-c3cc(OC)c(CN4CCN(CCC5CCN(c6ccc7c(c6)C(=O)N(C6CCC(=O)NC6=O)C7)CC5)CC45CCC5)c(OC)c3)cn(C)c(=O)c2cn1 (centres unmarked) [Compound D258]	< 10	–
COc1cc(-c2cn(C)c(=O)c3cnc(N(C)C)cc23)cc(OC)c1CN1CCC(c2ccc3c(c2)C(=O)N(C2CCC(=O)NC2=O)C3=O)CC1 (centres unmarked) [Compound D104]	–	< 10
COc1cc(-c2cn(C)c(=O)c3cnc(N(C)C)cc23)cc(OC)c1CN(C)CC12CC(C(=O)NCCCCCOc3cccc4c3C(=O)N(C3CCC(=O)NC3=O)C4=O)(C1)C2 (centres unmarked) [Compound D36]	–	< 10
COc1cc(-c2cn(C)c(=O)c3cnc(N(C)C)cc23)cc(OC)c1CN1CCC(C(C)N2CCC3(CC2)CC(Oc2ccc4c(c2)C(=O)N(C2CCC(=O)NC2=O)C4=O)C3)CC1 (centres unmarked) [Compound D75]	–	< 10
[2H]C([2H])([2H])n1cc(-c2cc(OC)c(CN3CCC4(CC3)CN(c3ccc5c(c3)C(=O)N(C3CCC(=O)NC3=O)C5)C4)c(OC)c2)c2cc(OC)ncc2c1=O (centres unmarked) [Compound D234]	< 10	–
COc1cc(-c2cn(C)c(=O)c3cnc(N(C)C)cc23)cc(OC)c1CN1CCC(c2ccc3c(c2)C(=O)N(C2CCC(=O)NC2=O)C3)CC1 (centres unmarked) [Compound D296]	< 10	–
COc1cc(-c2cn(C)c(=O)c3cnc(N4CCC4)cc23)cc(OC)c1CN1CCC(CN2CCC3(CN(c4ccc5c(c4)C(=O)N(C4CCC(=O)NC4=O)C5)C3)C(F)(F)C2)CC1 (centres unmarked) [Compound D227]	< 10	–
COc1cc(-c2cn(C)c(=O)c3cnc(N4CCC4)cc23)cc(OC)c1CN1CC(CN2CCC3(CC2)CN(c2ccc4c(c2)C(=O)N(C2CCC(=O)NC2=O)C4)C3)C1 (centres unmarked) [Compound D311]	< 10	–
COc1cc(-c2cn(C)c(=O)c3cnc(N(C)C)cc23)cc(OC)c1CN1CCC2CN(c3ccc4c(c3)C(=O)N(C3CCC(=O)NC3=O)C4=O)C21 (centres unmarked) [Compound D92]	–	< 10
COc1cc(-c2cn(C)c(=O)c3cnc(C4(C)CC4)cc23)cc(OC)c1CN1CCC(CCN2CCN(c3ccc4c(c3)C(=O)N(C3CCC(=O)NC3=O)C4)CC2)CC1 (centres unmarked) [Compound D237]	< 10	–
COc1cc(-c2cn(C)c(=O)c3cnc(N4CCC4)cc23)cc(OC)c1CN1CC(c2ccc3c(c2)C(=O)N(C2CCC(=O)NC2=O)C3=O)C1 (centres unmarked) [Compound D146]	–	< 10
COc1cc(-c2cn(C)c(=O)c3cnc(C4CC4)cc23)cc(OC)c1CN1CCN(CCC2CCN(c3ccc4c(c3)C(=O)N(C3CCC(=O)NC3=O)C4=O)CC2)CC1 (centres unmarked) [Compound D299]	< 10	–

Compound	DC50 (Table 6C) [nM]	DC50 (Table 6B) [nM]
COc1cc(-c2cn(C)c(=O)c3cnc(C4CC4)cc23)cc(OC)c1CN1CCC(C#Cc2ccc3c(c2)C(=O)N(C2CCC(=O)NC2=O)C3=O)CC1 (centres unmarked) [Compound D272]	< 10	–
COc1cc(-c2cn(C)c(=O)c3cnc(N(C)C)cc23)cc(OC)c1C1CCN(c2ccc3c(c2)C(=O)N(C2CCC(=O)NC2=O)C3)CC1 (centres unmarked) [Compound D265]	< 10	–
COc1cc2c(-c3cc(OC)c(CN4CC(CN5CCC6(CC5)CN(c5ccc7c(c5)C(=O)N(C5CCC(=O)NC5=O)C7)C6)C4)c(OC)c3)cn(C)c(=O)c2cn1 (centres unmarked) [Compound D316]	< 10	–
COc1cc(-c2cn(C)c(=O)c3cnc(N(C)C)cc23)cc(OC)c1CN(C)CC12CC(C(=O)NCCCCCNc3ccc4c(c3)C(=O)N(C3CCC(=O)NC3=O)C4=O)(C1)C2 (centres unmarked) [Compound D39]	–	< 10
COc1cc(-c2cn(C)c(=O)c3cnc(N(C)C)cc23)cc(OC)c1CN1CCC2(CC1)CCN(CC#Cc1ccc3c(c1)C(=O)N(C1CCC(=O)NC1=O)C3=O)C2 (centres unmarked) [Compound D65]	–	< 10
[2H]C([2H])([2H])n1cc(-c2cc(OC)c(CN3[C@H](C)CN(c4ccc5c(c4)C(=O)N(C4CCC(=O)NC4=O)C5)C[C@H]3C)c(OC)c2)c2cc(OC)ncc2c1=O (some centres unmarked) [Compound D254]	< 10	–
COc1cc(-c2cn(C)c(=O)c3cnc(N(C)C)cc23)cc(OC)c1CN1CC(CN2CCC3(CC2)CN(c2ccc4c(c2)C(=O)N(C2CCC(=O)NC2=O)C4=O)C3)C1 (centres unmarked) [Compound D50]	–	< 10
COc1cc(-c2cn(C)c(=O)c3cnc(N4CCC4)cc23)cc(OC)c1CN1CCC(c2ccc3c(c2)C(=O)N(C2CCC(=O)NC2=O)C3=O)CC1C(F)(F)F (centres unmarked) [Compound D150]	–	< 10
[2H]C1CC(N2Cc3ccc(N4CCC(CCN5CCN(Cc6c(OC)cc(-c7cn(C)c(=O)c8cnc(N9CCC9)cc78)cc6OC)CC5)CC4)cc3C2=O)C(=O)NC1=O (centres unmarked) [Compound D244]	< 10	–
COc1cc(-c2cn(C)c(=O)c3cnc(N(C)C)cc23)cc(OC)c1CN1CCN(C(C)(C)COc2cccc3c2C(=O)N(C2CCC(=O)NC2=O)C3=O)CC1 (centres unmarked) [Compound D81]	–	< 10
COc1cc(-c2cn(C)c(=O)c3cnc(N4CCC4)cc23)cc(OC)c1CN1CCC(N2CCN(c3ccc4c(c3)CN(C3CCC(=O)NC3=O)C4=O)CC2)CC1 (centres unmarked) [Compound D131]	–	< 10
COc1cc(-c2cn(C)c(=O)c3cnc(N4CCOCC4)cc23)cc(OC)c1CN1CCC(CN2CCC3(CC2)CC(Oc2ccc4c(c2)C(=O)N(C2CCC(=O)NC2=O)C4=O)C3)CC1 (centres unmarked) [Compound D178]	–	< 10
COc1cc(-c2cn(C3CC3)c(=O)c3cnc(N4CCC4)cc23)cc(OC)c1CN1CCC(N2CCN(c3ccc4c(c3)CN(C3CCC(=O)NC3=O)C4=O)CC2)CC1 (centres unmarked) [Compound D122]	–	< 10
COc1cc(-c2cn(C)c(=O)c3cnc(N4CC(F)(F)C4)cc23)cc(OC)c1CN1CCN(c2ccc3c(c2)C(=O)N(C2CCC(=O)NC2=O)C3)CC1(C)C (centres unmarked) [Compound D278]	< 10	–
COc1cc(-c2cn(C)c(=O)c3cnc(C4CC4)cc23)cc(OC)c1CN1CC(C#Cc2ccc3c(c2)C(=O)N(C2CCC(=O)NC2=O)C3)C1 (centres unmarked) [Compound D263]	< 10	–
[2H]C([2H])([2H])n1cc(-c2cc(OC)c(CN3[C@H](C)CN(c4ccc5c(c4)C(=O)N(C4CCC(=O)NC4=O)C5)C[C@H]3C)c(OC)c2)c2cc(N(C)C)ncc2c1=O (some centres unmarked) [Compound D276]	< 10	–
COc1cc(-c2cn(C)c(=O)c3cnc(N4CCOCC4)cc23)cc(OC)c1CN1CCC(C(N2CCC3(CC2)CC(Oc2ccc4c(c2)C(=O)N(C2CCC(=O)NC2=O)C4=O)C3)C(F)(F)F)CC1 (centres unmarked) [Compound D196]	< 10	–
COc1cc(-c2cn(C)c(=O)c3cnc(N(C)C)cc23)cc(OC)c1CN1CCC2(CC1)CN(c1ccc3c(c1)CN(C1CCC(=O)NC1=O)C3=O)C2 (centres unmarked) [Compound D127]	–	< 10
COc1cc(-c2cn(C)c(=O)c3cnc(N(C)C)cc23)cc(OC)c1CN1CCC(CCN2CCN(c3ccc4c(c3)C(=O)N(C3CCC(=O)N(COC(=O)OC(C)C)C3=O)C4=O)CC2)CC1 (centres unmarked) [Compound D85]	–	< 10
CCc1cc(-c2cn(C)c(=O)c3cnc(N4CCC4)cc23)cc(OC)c1CN1CCC2(CC1)CN(c1ccc3c(c1)C(=O)N(C1CCC(=O)NC1=O)C3)C2 (centres unmarked) [Compound D264]	< 10	–
